# Data: patent US20220267352A1, “RAPAMYCIN ANALOGS AND USES THEREOF” (Anakuria Therapeutics, Inc., priority 2021, published 2022)
# pIC50: −log10 of the molar value.
# Experiments:
# Assay type in all cases: cell-based
# [1] = system: p-p70 S6 Kinase (Thr389) in MCF-7 cells; assay: AlphaLISA Ultra pS6K1 assay; details: Homo sapiens, 1.5 h; MCF7 cells, 90 min
# Procedure, shortened: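 MCF-7 cells seeded 20–24 h, given fresh medium 2 h, then treated with compounds 90 min (0.5% DMSO final). Cells lysed, lysates frozen at −80 °C, then Thr389-phosphorylated S6K1 detected by AlphaLISA Ultra with acceptor beads 2 h, then donor beads 2 h.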
# [2] = system: pS6K1 T389 and pAkt S473 in PC3 cells; assay: Western blot based pS6K1 and pAKT assay at 24 and 48 hour timepoints
# Procedure: Example 57: Western Blot Based pS6K1 and pAKT Assay at 24 and 48 Hour Timepoints
# Assay Protocol: • 1. Seed six well plate with 500,000 PC3 cells per well and incubate for 20˜24 hour. • 2. Add compounds into the cell plate. Incubate for 24 to 48 hours. • 4. Plate is placed on ice and the media is removed via aspiration. The wells are washed with 1 mL of 1x PBS and then fully aspirated. • 5. 110 μL of 1% Triton Lysis Buffer is added and each well is scraped vigorously. • 6. Cell homogenates are transferred to 1.5 mL eppendorf tubes on ice and spun down at 4° C. for 10 minutes at 10,000 rpm. • 7. Protein concentration of resulting cell lysates were quantified utilizing a Bradford assay and the samples run analyzed via Western blot on 4-12% Bis/Tris gels with 1×MES buffer. • 8. The gels were transferred onto membranes at 50V for 100 minutes, blocked with Odyssey Blocking buffer for 30 minutes then incubated overnight with primary antibody (pS6K1 T389 Rabbit or pAkt S473 Rabbit) overnight at 4° C. on a rotator. • 9. The membranes were washed 3× with TBS-T with a 5 minute incubation between each wash then incubated with secondary antibody (LiCor IRDye 800 Donkey Anti Rabbit) for at least 30 minutes. • 10. The membranes were washed 3× with TBS-T with a 5 minute incubation between each wash. • 11. The gels were then incubated for 5 minutes with PBS at room temperature then imaged using a Li-Cor.
# Compounds that are not selective by comparing pS6K1 and pAKT IC50 by kinase assays are indicated by “NO” in the “mTORC1 selective @ 90 min” column of Table 4. […] Compounds that are not selective at the 24 hrs mark are indicated by “NO” in the “mTORC1 selective @ 24 hrs” column of Table 4. “N/A” stands for “not assayed” and “N/C” stands for “not calculated”.
# mTORC1 over mTORC2 = mTORC1 over mTORC2 selectivity by comparing pS6K1 and pAKT IC50; details: by comparing pS6K1 and pAKT IC50, 90 min
# Procedure, shortened: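 MCF-7 cells were treated with compounds (0.5% final DMSO) for 90 minutes in one protocol and 2 hours in the other, then lysed. Phospho-signal in lysates was read by bead-based donor/acceptor proximity assay. pS6K1 and pAKT IC50 values were compared to judge mTORC1 over mTORC2 selectivity, at 90 min and at 24 hrs.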
# [3] = system: p-Akt 1/2/3 (Ser473) in MCF-7 cells; assay: AlphaLISA Ultra pAKT assay; details: Homo sapiens, 1.5 h; MCF7 cells, 90 min
# Procedure, shortened: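 MCF-7 cells (16,000˜20,000 per well in 36 μL medium) were seeded in Corning 3701 plates for 20˜24 hour, refreshed with new medium for 90 minutes, then given 12 μL of 4× compound (0.5% final DMSO). Cells were lysed with 2× lysis buffer, and lysate was analyzed by AlphaLISA Ultra pAKT using acceptor and donor beads, read on an EnSpire reader.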
Compound,pIC50 [1],mTORC1 selective @ 24 hrs [2],mTORC1 selective @ 90 min (mTORC1 over mTORC2),pIC50 [3]
"COCCOCCO[C@H]1C[C@@H]2CC[C@@H](C)[C@@](O)(O2)C(=O)C(=O)N2CCCC[C@H]2C(=O)O[C@H]([C@H](C)C[C@@H]2CC[C@@H](OC(F)F)[C@H](OC)C2)CC(=O)[C@H](C)/C=C(\C)[C@@H](O)[C@@H](OC)C(=O)[C@H](C)C[C@H](C)/C=C/C=C/C=C/1C [I-4, (22E,24E,26E,27E,33R,34S,35R,36R,38S,40S,42S,43S,44R,45R,55R)-43-[(1R)-2-[(1S,3R,4R)-4-(difluoromethoxy)-3-methoxy-cyclohexyl]-1-methyl-ethyl]-44,55-dihydroxy-45-methoxy-42-[2-(2-methoxyethoxy)ethoxy]-33,34,35,36,46,47-hexamethyl-64,65-dioxa-56-azatricyclohexatriaconta-22,24,26(46),27(47)-tetraene-48,49,50,51,52-pentone]",8.00 to 9.00,Yes,–,–
"CO[C@@H]1C[C@H](C[C@@H](C)[C@@H]2CC(=O)[C@H](C)/C=C(\C)[C@@H](O)[C@@H](OC)C(=O)[C@H](C)C[C@H](C)/C=C/C=C/C=C(\C)[C@@H](OCC3COCCO3)C[C@@H]3CC[C@@H](C)[C@@](O)(O3)C(=O)C(=O)N3CCCC[C@H]3C(=O)O2)CC[C@H]1OC(F)F (stereo partly drawn) [I-9, (24E,26E,28E,29E,32R,33S,34R,35R,37S,39S,41S,42S,44R,45R,55R)-42-[(1R)-2-[(1S,3R,4R)-4-(difluoromethoxy)-3-methoxy-cyclohexyl]-1-methyl-ethyl]-41-(1,4-dioxan-2-ylmethoxy)-44,55-dihydroxy-45-methoxy-32,33,34,35,46,47-hexamethyl-66,67-dioxa-56-azatricyclohexatriaconta-24,26,28(46),29(47)-tetraene-48,49,50,51,52-pentone]",8.00 to 9.00,Yes,–,–
"CO[C@@H]1C[C@H](C[C@@H](C)[C@@H]2CC(=O)[C@H](C)/C=C(\C)[C@@H](O)[C@@H](OC)C(=O)[C@H](C)C[C@H](C)/C=C/C=C/C=C(\C)[C@@H](OCCOC3COC3)C[C@@H]3CC[C@@H](C)[C@@](O)(O3)C(=O)C(=O)N3CCCC[C@H]3C(=O)O2)CC[C@H]1OCCCN1CCOCC1 [I-14, (27E,29E,31E,32E,39R,40S,41R,42R,44S,46S,48S,49S,51R,52R,61R)-51,61-dihydroxy-52-methoxy-49-[(1R)-2-[(1S,3R,4R)-3-methoxy-4-(3-morpholinopropoxy)cyclohexyl]-1-methyl-ethyl]-39,40,41,42,53,54-hexamethyl-48-[2-(oxetan-3-yloxy)ethoxy]-73,74-dioxa-63-azatricyclohexatriaconta-27,29,31(53),32(54)-tetraene-55,56,57,58,59-pentone]",> 9.00,Yes,–,–
"CO[C@@H]1C[C@H](C[C@@H](C)[C@@H]2CC(=O)[C@H](C)/C=C(\C)[C@@H](O)[C@@H](OC)C(=O)[C@H](C)C[C@H](C)/C=C/C=C/C=C(\C)[C@@H](OCCOC3COC3)C[C@@H]3CC[C@@H](C)[C@@](O)(O3)C(=O)C(=O)N3CCCC[C@H]3C(=O)O2)CC[C@H]1OC(=O)N(C)CCN1CCOCC1 [I-18, [(43S,45R,47R)-4-[(2R)-2-[(28E,30E,32E,33E,39R,40S,41R,42R,44S,46S,48S,49S,51R,52R,62R)-51,62-dihydroxy-52-methoxy-39,40,41,42,53,54-hexamethyl-48-[2-(oxetan-3-yloxy)ethoxy]-55,56,57,58,59-pentaoxo-76,77-dioxa-64-azatricyclohexatriaconta-28,30,32(53),33(54)-tetraen-49-yl]propyl]-47-methoxy-45-cyclohexyl] N-methyl-N-(2-morpholinoethyl)carbamate]",–,Yes,–,–
"CO[C@@H]1C[C@H](C[C@@H](C)[C@@H]2CC(=O)[C@H](C)/C=C(\C)[C@@H](O)[C@@H](OC)C(=O)[C@H](C)C[C@H](C)/C=C/C=C/C=C(\C)[C@@H](OCCOC3COC3)C[C@@H]3CC[C@@H](C)[C@@](O)(O3)C(=O)C(=O)N3CCCC[C@H]3C(=O)O2)CC[C@H]1OC(=O)NCCN1CCOCC1 [I-21, [(42S,44R,46R)-4-[(2R)-2-[(27E,29E,31E,32E,38R,39S,40R,41R,43S,45S,47S,48S,50R,51R,61R)-50,61-dihydroxy-51-methoxy-38,39,40,41,52,53-hexamethyl-47-[2-(oxetan-3-yloxy)ethoxy]-54,55,56,57,58-pentaoxo-75,76-dioxa-64-azatricyclohexatriaconta-27,29,31(52),32(53)-tetraen-48-yl]propyl]-46-methoxy-44-cyclohexyl] N-(2-morpholinoethyl)carbamate]",> 9.00,Yes,–,–
"CO[C@@H]1/C(C)=C/[C@@H](C)C(=O)C[C@@H]([C@H](C)C[C@@H]2CC[C@@H](OP(C)(C)=O)[C@H](OC)C2)OC(=O)[C@@H]2CCCCN2C(=O)C(=O)[C@]2(O)O[C@@H](CC[C@H]2C)C[C@H](OCCOC2CCOCC2)/C(C)=C/C=C/C=C/[C@@H](C)C[C@@H](C)C(=O)[C@@H]1OC [I-55, (1R,9S,12S,15R,16E,18R,19R,21R,23S,24E,26E,28E,30S,32S,35R)-12-[(1R)-2-[(1S,3R,4R)-4-dimethylphosphoryloxy-3-methoxy-cyclohexyl]-1-methyl-ethyl]-1-hydroxy-18,19-dimethoxy-15,17,21,23,29,35-hexamethyl-30-(2-tetrahydropyran-4-yloxyethoxy)-11,36-dioxa-4-azatricyclo[30.3.1.0^4,9]hexatriaconta-16,24,26,28-tetraene-2,3,10,14,20-pentone]",–,No,–,–
"COCCO[C@@H]1CC[C@@H](C[C@@H](C)[C@@H]2CC(=O)[C@H](C)/C=C(\C)[C@@H](O)[C@@H](OC)C(=O)[C@H](C)C[C@H](C)/C=C/C=C/C=C(\C)[C@@H](OCc3cnccn3)C[C@@H]3CC[C@@H](C)[C@@](O)(O3)C(=O)C(=O)N3CCCC[C@H]3C(=O)O2)C[C@H]1OC [I-57, (1R,9S,12S,15R,16E,18R,19R,21R,23S,24E,26E,28E,30S,32S,35R)-1,18-dihydroxy-19-methoxy-12-[(1R)-2-[(1S,3R,4R)-3-methoxy-4-(2-methoxyethoxy)cyclohexyl]-1-methyl-ethyl]-15,17,21,23,29,35-hexamethyl-30-(pyrazin-2-ylmethoxy)-11,36-dioxa-4-azatricyclo[30.3.1.0^4,9]hexatriaconta-16,24,26,28-tetraene-2,3,10,14,20-pentone]",–,Yes,–,–
"CO[C@@H]1C[C@H](C[C@@H](C)[C@@H]2CC(=O)[C@H](C)/C=C(\C)[C@@H](O)[C@@H](OC)C(=O)[C@H](C)C[C@H](C)/C=C/C=C/C=C(\C)[C@@H](OCc3cnccn3)C[C@@H]3CC[C@@H](C)[C@@](O)(O3)C(=O)C(=O)N3CCCC[C@H]3C(=O)O2)CC[C@H]1OCCO [I-59, (1R,9S,12S,15R,16E,18R,19R,21R,23S,24E,26E,28E,30S,32S,35R)-1,18-dihydroxy-12-[(1R)-2-[(1S,3R,4R)-4-(2-hydroxyethoxy)-3-methoxy-cyclohexyl]-1-methyl-ethyl]-19-methoxy-15,17,21,23,29,35-hexamethyl-30-(pyrazin-2-ylmethoxy)-11,36-dioxa-4-azatricyclo[30.3.1.0^4,9]hexatriaconta-16,24,26,28-tetraene-2,3,10,14,20-pentone]",–,Yes,–,–
"CO[C@@H]1C[C@H](C[C@@H](C)[C@@H]2CC(=O)[C@H](C)/C=C(\C)[C@@H](O)[C@@H](OC)C(=O)[C@H](C)C[C@H](C)/C=C/C=C/C=C(\C)[C@@H](OCCOC3COC3)C[C@@H]3CC[C@@H](C)[C@@](O)(O3)C(=O)C(=O)N3CCCC[C@H]3C(=O)O2)CC[C@H]1OC(F)F [I-105, (23E,25E,27E,28E,32R,33S,34R,35R,37S,39S,41S,42S,44R,45R,55R)-42-[(1R)-2-[(1S,3R,4R)-4-(difluoromethoxy)-3-methoxy-cyclohexyl]-1-methyl-ethyl]-44,55-dihydroxy-45-methoxy-32,33,34,35,46,47-hexamethyl-41-[2-(oxetan-3-yloxy)ethoxy]-65,66-dioxa-56-azatricyclohexatriaconta-23,25,27(46),28(47)-tetraene-48,49,50,51,52-pentone]",8.00 to 9.00,–,Yes,≤ 6.00
